From patent US7442541B2, “β-glucan-containing fat and oil composition and novel microorganism capable of producing β-glucan” (Adeka Corporation, priority 2002, dated 2008)

Tests used:
[1] = system: IFO-4466, IFO-6353, and IFO-7757; assay: Growth of reference strains on solid medium containing cycloheximide; format: cell-based, Aureobasidium pullulans; settings: solid medium (agar plate), 26° C., 10 days
Procedure: This is the case that the formation of a colony of 0.1 mm or greater, preferably 0.3 mm or greater, still preferably 0.5 mm or greater in diameter as a result of fungous proliferation is observed on a solid medium having the cycloheximide concentration that IFO strains is not allowed to grow after a strain is inoculated on the solid medium (agar plate) containing cycloheximide and cultured at 26° C. for 10 days. Usually, these IFO strains are not allowed to grow on a solid medium containing cycloheximide at concentrations of 20 μg/ml or higher.

[2] = system: ADK-31; assay: Cycloheximide resistance test; format: cell-based; settings: strain ADK-31, YM agar, 26° C., 10 days
Procedure: (§1) The strains obtained by the screening in Test Examples 1 and 2 and IFO-4466, IFO-6353, and IFO-7757 purchased from Institute for Fermentation, Osaka, i.e., were tested for cycloheximide resistance as follows. Each strain was grown on YM agar medium (Difco) at 26° C. for 5 days. YM agar media (Difco) containing 5, 10, 20, 40, and 80 μg/ml of cycloheximide were prepared. The grown strain was inoculated into each of the cycloheximide-containing media using a sterile toothpick and incubated at 26° C. for 10 days. The plates were examined for colonies. The diameters of the colonies, if formed, were measured.

[3] = system: ADK-1; assay: Cycloheximide resistance test; format: cell-based; settings: strain ADK-1, YM agar, 26° C., 10 days
Procedure: as §1

[4] = system: ADK-10; assay: Cycloheximide resistance test; format: cell-based; settings: strain ADK-10, YM agar, 26° C., 10 days
Procedure: as §1

[5] = system: ADK-24; assay: Cycloheximide resistance test; format: cell-based; settings: strain ADK-24, YM agar, 26° C., 10 days
Procedure: as §1

[6] = system: ADK-28; assay: Cycloheximide resistance test; format: cell-based; settings: strain ADK-28, YM agar, 26° C., 10 days
Procedure: as §1

[7] = system: ADK-20; assay: Cycloheximide resistance test; format: cell-based; settings: strain ADK-20, YM agar, 26° C., 10 days
Procedure: as §1

[8] = system: ADK-17; assay: Cycloheximide resistance test; format: cell-based; settings: strain ADK-17, YM agar, 26° C., 10 days
Procedure: as §1

[9] = system: ADK-4; assay: Cycloheximide resistance test; format: cell-based; settings: strain ADK-4, YM agar, 26° C., 10 days
Procedure: as §1

[10] = system: ADK-42; assay: Cycloheximide resistance test; format: cell-based; settings: strain ADK-42, YM agar, 26° C., 10 days
Procedure: as §1

[11] = system: ADK-82; assay: Cycloheximide resistance test; format: cell-based, Aureobasidium pullulans; settings: strain ADK-82, YM agar, 26° C., 10 days
Procedure: as §1

[12] = system: IFO-4466; assay: Cycloheximide resistance test; format: cell-based, Aureobasidium pullulans; settings: strain IFO-4466, YM agar, 26° C., 10 days
Procedure: as §1

[13] = system: ADK-71; assay: Cycloheximide resistance test; format: cell-based, Aureobasidium pullulans; settings: strain ADK-71, YM agar, 26° C., 10 days
Procedure: as §1

[14] = system: IFO-7757; assay: Cycloheximide resistance test; format: cell-based, Aureobasidium pullulans; settings: strain IFO-7757, YM agar, 26° C., 10 days
Procedure: as §1

[15] = system: ADK-77; assay: Cycloheximide resistance test; format: cell-based, Aureobasidium pullulans; settings: strain ADK-77, YM agar, 26° C., 10 days
Procedure: as §1

[16] = system: IFO-6353; assay: Cycloheximide resistance test; format: cell-based, Aureobasidium pullulans; settings: strain IFO-6353, YM agar, 26° C., 10 days
Procedure: as §1

[17] = system: ADK-34; assay: Cycloheximide resistance test; format: cell-based, Aureobasidium pullulans; settings: strain ADK-34, YM agar, 26° C., 10 days
Procedure: as §1

C[C@@H]1C[C@@H]([C@H](O)CC2CC(=O)NC(=O)C2)C(=O)[C@@H](C)C1 [Cycloheximide, cycloheximide]
8.5 mm: Colony diameter ([4]; cycloheximide 5 μg/ml) | Colony diameter ([9]; cycloheximide 5 μg/ml)
4.1 mm: Colony diameter ([13]; cycloheximide 10 μg/ml) | Colony diameter ([15]; cycloheximide 10 μg/ml)
6.2 mm: Colony diameter ([7]; cycloheximide 5 μg/ml)
9.5 mm: Colony diameter ([15]; cycloheximide 5 μg/ml)
4.4 mm: Colony diameter ([12]; cycloheximide 5 μg/ml)
2.9 mm: Colony diameter ([11]; cycloheximide 10 μg/ml)
2.5 mm: Colony diameter ([5]; cycloheximide 10 μg/ml)
7.6 mm: Colony diameter ([13]; cycloheximide 5 μg/ml)
7.3 mm: Colony diameter ([16]; cycloheximide 5 μg/ml)
2.4 mm: Colony diameter ([10]; cycloheximide 5 μg/ml)
1.5 mm: Colony diameter ([11]; cycloheximide 20 μg/ml)
1.2 mm: Colony diameter ([11]; cycloheximide 40 μg/ml) | Colony diameter ([13]; cycloheximide 40 μg/ml)
7.1 mm: Colony diameter ([6]; cycloheximide 5 μg/ml)
6.3 mm: Colony diameter ([2]; cycloheximide 5 μg/ml)
6.7 mm: Colony diameter ([8]; cycloheximide 5 μg/ml) | Colony diameter ([17]; cycloheximide 10 μg/ml)
3.7 mm: Colony diameter ([17]; cycloheximide 40 μg/ml)
1.7 mm: Colony diameter ([2]; cycloheximide 10 μg/ml)
13.6 mm: Colony diameter ([17]; cycloheximide 5 μg/ml)
0.8 mm: Colony diameter ([15]; cycloheximide 20 μg/ml)
5.1 mm: Colony diameter ([17]; cycloheximide 20 μg/ml)
1.8 mm: Colony diameter ([13]; cycloheximide 20 μg/ml)
9.1 mm: Colony diameter ([5]; cycloheximide 5 μg/ml)
0 mm: Colony diameter ([2]; cycloheximide 20 μg/ml) | Colony diameter ([2]; cycloheximide 40 μg/ml) | Colony diameter ([2]; cycloheximide 80 μg/ml) | Colony diameter ([3]; cycloheximide 5 μg/ml) | Colony diameter ([3]; cycloheximide 10 μg/ml) | Colony diameter ([3]; cycloheximide 20 μg/ml) | Colony diameter ([3]; cycloheximide 40 μg/ml) | Colony diameter ([3]; cycloheximide 80 μg/ml) | Colony diameter ([4]; cycloheximide 10 μg/ml) | Colony diameter ([4]; cycloheximide 20 μg/ml) | Colony diameter ([4]; cycloheximide 40 μg/ml) | Colony diameter ([4]; cycloheximide 80 μg/ml) | Colony diameter ([5]; cycloheximide 20 μg/ml) | Colony diameter ([5]; cycloheximide 40 μg/ml) | Colony diameter ([5]; cycloheximide 80 μg/ml) | Colony diameter ([6]; cycloheximide 10 μg/ml) | Colony diameter ([6]; cycloheximide 20 μg/ml) | Colony diameter ([6]; cycloheximide 40 μg/ml) | Colony diameter ([6]; cycloheximide 80 μg/ml) | Colony diameter ([7]; cycloheximide 10 μg/ml) | Colony diameter ([7]; cycloheximide 20 μg/ml) | Colony diameter ([7]; cycloheximide 40 μg/ml) | Colony diameter ([7]; cycloheximide 80 μg/ml) | Colony diameter ([8]; cycloheximide 10 μg/ml) | Colony diameter ([8]; cycloheximide 20 μg/ml) | Colony diameter ([8]; cycloheximide 40 μg/ml) | Colony diameter ([8]; cycloheximide 80 μg/ml) | Colony diameter ([9]; cycloheximide 10 μg/ml) | Colony diameter ([9]; cycloheximide 20 μg/ml) | Colony diameter ([9]; cycloheximide 40 μg/ml) | Colony diameter ([9]; cycloheximide 80 μg/ml) | Colony diameter ([10]; cycloheximide 10 μg/ml) | Colony diameter ([10]; cycloheximide 20 μg/ml) | Colony diameter ([10]; cycloheximide 40 μg/ml) | Colony diameter ([10]; cycloheximide 80 μg/ml) | Colony diameter ([11]; cycloheximide 80 μg/ml) | Colony diameter ([12]; cycloheximide 10 μg/ml) | Colony diameter ([12]; cycloheximide 20 μg/ml) | Colony diameter ([12]; cycloheximide 40 μg/ml) | Colony diameter ([12]; cycloheximide 80 μg/ml) | Colony diameter ([13]; cycloheximide 80 μg/ml) | Colony diameter ([14]; cycloheximide 5 μg/ml) | Colony diameter ([14]; cycloheximide 10 μg/ml) | Colony diameter ([14]; cycloheximide 20 μg/ml) | Colony diameter ([14]; cycloheximide 40 μg/ml) | Colony diameter ([14]; cycloheximide 80 μg/ml) | Colony diameter ([15]; cycloheximide 40 μg/ml) | Colony diameter ([15]; cycloheximide 80 μg/ml) | Colony diameter ([16]; cycloheximide 20 μg/ml) | Colony diameter ([16]; cycloheximide 40 μg/ml) | Colony diameter ([16]; cycloheximide 80 μg/ml)
0.5 mm: Colony diameter ([17]; cycloheximide 80 μg/ml)
2.3 mm: Colony diameter ([16]; cycloheximide 10 μg/ml)
10.4 mm: Colony diameter ([11]; cycloheximide 5 μg/ml)
≥ 20 µg/mL: cycloheximide concentration at which IFO strains are not allowed to grow [1]
